The test relates to HCT116. The following applies: 72 h. An outline of the steps: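 In 1536-well plates, 250 HCT116 cells per well were seeded and left for 5 h to attach. Luminescence from CellTiter-Glo was set against vehicle (0%) and positive control (-100%), and pattern correction was applied. IC50 and maximal efficacy come from four-parameter Hill fitting.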

Where a name gives a salt, the structure may show the parent alone. A value given as a limit tells only on which side of the number the result lay.

Take `CCCCCCCCCCCCCCCC(=O)OC[C@H](O)[C@H]1OC(=O)C(O)=C1O` [L-Ascorbyl 6-palmitate]: the IC50 cell viability reads like this: (ICRF193 0 nM) greater than 45.8 µM; (ICRF193 200 nM) greater than 45.8 µM.
The compound `CCOC(=O)[C@@H](N)CS` [L-Cysteine ethyl ester hydrochloride] gave an IC50 cell viability (ICRF193 0 nM) greater than 45.8 µM and an IC50 cell viability (ICRF193 200 nM) greater than 45.8 µM.
`COC(=O)[C@@H](N)CS` [L-Cysteine methyl ester hydrochloride]: the IC50 cell viability is, setting by setting: (ICRF193 0 nM) greater than 45.8 µM; (ICRF193 200 nM) greater than 45.8 µM.
Consider `N[C@@H](CSSC[C@H](N)C(=O)O)C(=O)O` [L-Cystine], for which the IC50 cell viability runs as follows: (ICRF193 0 nM) greater than 45.8 µM; (ICRF193 200 nM) greater than 45.8 µM.
Take `CSCC[C@H](N)C(=O)O` [L-Methionine]: the IC50 cell viability reads like this: (ICRF193 0 nM) greater than 45.8 µM; (ICRF193 200 nM) greater than 45.8 µM.
`CC(C)(S)[C@H](N)C(=O)O` [L-Penicillamine] showed an IC50 cell viability (ICRF193 0 nM) greater than 45.8 µM and an IC50 cell viability (ICRF193 200 nM) greater than 45.8 µM.
As to `O=C(O)[C@@H]1CCCN1` [L-Proline], the IC50 cell viability by setting is: (ICRF193 0 nM) greater than 45.8 µM; (ICRF193 200 nM) greater than 45.8 µM.
Take `C[C@@H](O)[C@H](N)C(=O)O` [L-Threonine]: the IC50 cell viability (ICRF193 0 nM) was greater than 45.8 µM and the IC50 cell viability (ICRF193 200 nM) was greater than 45.8 µM.
In the case of `N[C@@H](Cc1cc(I)c(Oc2cc(I)c(O)c(I)c2)c(I)c1)C(=O)O` [L-Thyroxine], the IC50 cell viability was greater than 45.8 µM (ICRF193 0 nM) and greater than 45.8 µM (ICRF193 200 nM).
`CC(C)[C@H](N)C(=O)O` [L-Valine] displayed an IC50 cell viability (ICRF193 0 nM) greater than 45.8 µM and an IC50 cell viability (ICRF193 200 nM) greater than 45.8 µM.
`Nc1nc(=O)c2c([nH]1)NCC(CNc1ccc(C(=O)N[C@@H](CCC(=O)O)C(=O)O)cc1)N2C=O` (some centres undefined) [LEUCOVORIN CALCIUM]: the IC50 cell viability was greater than 45.8 µM (ICRF193 0 nM) and greater than 45.8 µM (ICRF193 200 nM).
In turn, `C[C@@H]1NC(=O)[C@@H]2CCCN2C(=O)[C@H](CC(N)=O)NC(=O)[C@@H]2CSSC[C@H](N)C(=O)N[C@H]3CSSC[C@H](NC1=O)C(=O)N[C@@H]([C@@H](C)O)C(=O)NCC(=O)N[C@H](C(=O)N[C@@H](Cc1ccc(O)cc1)C(=O)O)CSSC[C@H](NC(=O)[C@H](Cc1ccc(O)cc1)NC(=O)[C@H](CCC(=O)O)NC3=O)C(=O)N2` [LINACLOTIDE (1 mg/ml)] showed an IC50 cell viability (ICRF193 0 nM) greater than 45.8 µM and an IC50 cell viability (ICRF193 200 nM) greater than 45.8 µM.
In the case of `Cl[C@H]1[C@H](Cl)[C@@H](Cl)[C@@H](Cl)[C@H](Cl)[C@H]1Cl` [LINDANE], the IC50 cell viability was greater than 45.8 µM (ICRF193 0 nM) and greater than 45.8 µM (ICRF193 200 nM).
Turning to `O.O.O.O.O=C([O-])CC(O)(CC(=O)[O-])C(=O)[O-].[Li+].[Li+].[Li+]` [LITHIUM CITRATE], the IC50 cell viability by setting is: (ICRF193 0 nM) greater than 45.8 µM; (ICRF193 200 nM) greater than 45.8 µM.
In the case of `CN1[C@@H](CC(=O)c2ccccc2)CCC[C@H]1C[C@H](O)c1ccccc1` [LOBELINE HYDROCHLORIDE], the IC50 cell viability runs as follows: (ICRF193 0 nM) greater than 45.8 µM; (ICRF193 200 nM) greater than 45.8 µM.
Take `CC(CCc1ccccc1)NCC(O)c1ccc(O)c(C(N)=O)c1` (centres undefined) [Labetalol HCl]: the IC50 cell viability is greater than 45.8 µM (ICRF193 0 nM) and greater than 45.8 µM (ICRF193 200 nM).
Regarding `OC[C@@H](O)[C@@H](O[C@@H]1O[C@H](CO)[C@H](O)[C@H](O)[C@H]1O)[C@H](O)[C@@H](O)CO` [Lactitol], the IC50 cell viability was greater than 45.8 µM (ICRF193 0 nM) and greater than 45.8 µM (ICRF193 200 nM).
For `O=C(C[S+]([O-])Cc1ccco1)NC/C=C\COc1cc(CN2CCCCC2)ccn1` (centres undefined) [Lafutidine], the IC50 cell viability reads like this: (ICRF193 0 nM) greater than 45.8 µM; (ICRF193 200 nM) greater than 45.8 µM.
Consider `Nc1ccn([C@@H]2CS[C@H](CO)O2)c(=O)n1` [Lamivudine], for which the IC50 cell viability runs as follows: (ICRF193 0 nM) greater than 45.8 µM; (ICRF193 200 nM) greater than 45.8 µM.
With `Nc1nnc(-c2cccc(Cl)c2Cl)c(N)n1` [Lamotrigine], the IC50 cell viability (ICRF193 0 nM) was greater than 45.8 µM and the IC50 cell viability (ICRF193 200 nM) was greater than 45.8 µM.
As to `CC1(C)OC[C@@H](COC(=O)CCc2ccc(OC[C@@H](O)CNCCNC(=O)N3CCOCC3)cc2)O1` [Landiolol hydrochloride], the IC50 cell viability is greater than 45.8 µM (ICRF193 0 nM) and greater than 45.8 µM (ICRF193 200 nM).
Consider `N#C/C(=C1/SCC(c2ccccc2Cl)S1)n1ccnc1` (centres undefined) [Lanoconazole], for which the IC50 cell viability is greater than 45.8 µM (ICRF193 0 nM) and greater than 45.8 µM (ICRF193 200 nM).
Turning to `C[C@H](CN1CCCC1)C(=O)c1ccc(C(F)(F)F)cc1` [Lanperisone hydrochloride], the IC50 cell viability is, setting by setting: (ICRF193 0 nM) greater than 45.8 µM; (ICRF193 200 nM) greater than 45.8 µM.
With `CCN(C(=O)c1c(O)c2c(Cl)cccc2n(C)c1=O)c1ccccc1` [Laquinimod], the IC50 cell viability was greater than 45.8 µM (ICRF193 0 nM) and greater than 45.8 µM (ICRF193 200 nM).
With `CC(C)OC(=O)CCC/C=C\C[C@@H]1[C@@H](CC[C@@H](O)CCc2ccccc2)[C@H](O)C[C@@H]1O` [Latanoprost], the IC50 cell viability runs as follows: (ICRF193 0 nM) greater than 45.8 µM; (ICRF193 200 nM) greater than 45.8 µM.
As to `CCCCCCCCCCCCSCCOCCOCCOCCOCCOCCOCCOCCOCCOCCO` [Laureth 10s], the IC50 cell viability by setting is: (ICRF193 0 nM) greater than 45.8 µM; (ICRF193 200 nM) greater than 45.8 µM.
In the case of `NCCNC(=O)c1ccc(Cl)cn1` [Lazabemide hydrochloride], the IC50 cell viability is, setting by setting: (ICRF193 0 nM) greater than 45.8 µM; (ICRF193 200 nM) greater than 45.8 µM.

Values taken from the supplement of paper PMC12137928.
